Measurements reported in US20010047099A1, “4-aminopicolinates and their use as herbicides” (priority 2000, published 2001).

Legend:
Format in all cases: in vivo
[1] = system: common ragweed (Ambrosia artemisiifolia); assay: Range & Pasture Crop Testing (postemergence track sprayer); settings: Table 9; rate 70 g/Ha; 3 week evaluation
Experimental: (§1) Rates are calculated based upon 5 doses being applied. The high rate (X), followed by serial dilutions of 1/2×, 1/4×, 1/8× and 1/16×. Compound requirements are based upon the 187 L/ha carrier volume, specifications of the delivery system (Mandel track sprayer) and generating 24 mL of technical spray material to allow for the dilutions and overage in the sprayer. [formula]
(§2) All technical materials were formulated in 97:3 (acetone:DMSO) with 0.25% X-77. The total volume of solvent is maintained at less than 7%. An overhead Mandel track sprayer calibrated to deliver 187 L/ha was used for all treatment applications (postemergence). Picloram was included as a comparison treatment.
(§3) Solutions were applied with a mechanized track-sprayer at the following settings:
(§4) Spray height: 17 inches above top of plants
(§5) This provides an application volume of 187 L/ha.
(§6) Percent weed control (burn down) was evaluated 3 weeks after treatment. Visual control on a 0-100 linear scale was used, with 0 representing no control and 100 representing total control. Burn down ratings were taken for annual and perennial weed species.

[2] = system: broadleaf dock (Rumex obtusifolia); assay: as above; settings: Table 9; rate 70 g/Ha; 3 weeks after treatment
Experimental: as §1, §2, §3, §4, §5, §6

[3] = system: crested wheatgrass (Agropyron cristatum) (grass crop); assay: as above; settings: Table 9, rate 70 g/Ha, 3 weeks after treatment
Experimental: as §1, §2, §3, §4, §5, §6

[4] = system: lambsquarters (Chenopodium album); assay: Postemergence herbicidal activity; settings: Table 5; rate 125 ppm
How it was run: (§7)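 Spray rate conversion: 1 ppm ≈ 1 g/Ha. The test used greenhouse seedlings (first/second true leaf) treated with a serially diluted compound spray. Control plants received carrier only. Efficacy was taken as visual injury at 2 weeks on a 0–100% scale.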

[5] = system: cocklebur (Xanthium strumarium); assay: Postemergence herbicidal activity; settings: Table 1; rate 125 ppm; visual, after 2 weeks
How it was run: as §7

[6] = system: chickweed (Stellaria media); assay: Postemergence herbicidal activity; settings: rate 125 ppm
How it was run: as §7

[7] = system: wild buckwheat (Polygonum convolvulus); assay: Postemergence herbicidal activity; settings: rate 125 ppm
How it was run: as §7

[8] = system: Canada thistle (Cirsium arvense); assay: Range & Pasture Crop Testing (postemergence track sprayer)
Experimental: (§8) By applying the well-accepted probit analysis as described by J. Berkson in Journal of the […], 48, 565 (1953) and by D. Finney in “Probit Analysis” Cambridge University Press (1952), the above data can be used to calculate GR50 and GR80 values, which are defined as growth reduction factors that correspond to the effective dose of herbicide required to kill or control 50 percent or 80 percent, respectively, of a target plant.
as §1, §2, §3, §4, §5, §6

[9] = system: wheat (Triticum aestivum); assay: Postemergence herbicidal activity, selectivity to wheat; settings: Table 5; crop (wheat); rate 125 ppm
Experimental: Seeds of the desired test plant species were planted in Grace-Sierra MetroMix® 306 planting mixture, which typically has a pH of 6.0 to 6.8 and an organic matter content of about 30 percent, in plastic pots with a surface area of 64 square centimeters. When required to ensure good germination and healthy plants, a fungicide treatment and/or other chemical or physical treatment was applied. The plants were grown for 7-21 days in a greenhouse with an approximate 15 hr photoperiod which was maintained at about 23-29° C. during the day and 22-28° C. during the night. Nutrients and water were added on a regular basis and supplemental lighting was provided with overhead metal halide 1000-Watt lamps as necessary. The plants were employed for testing when they reached the first or second true leaf stage.
A weighed amount, determined by the highest rate to be tested, of each test compound was placed in a 20 mL glass vial and was dissolved in 4 mL of a 97:3 v/v (volume/volume) mixture of acetone and dimethyl sulfoxide (DMSO) to obtain concentrated stock solutions. […] The concentrated stock solutions obtained were diluted with an aqueous mixture containing acetone, water, isopropyl alcohol, DMSO, Atplus 411F crop oil concentrate, and Triton X-155 surfactant in a 48.5:39:10:1.5:1.0:0.02 v/v ratio to obtain spray solutions of known concentration. The solutions containing the highest concentration to be tested were prepared by diluting 2 mL aliquots of the stock solution with 13 mL of the mixture and lower concentrations were prepared by serial dilution of the stock solution. Approximately 1.5 mL aliquots of each solution of known concentration were sprayed evenly onto each of the test plant pots using a DeVilbiss atomizer driven by compressed air pressure of 2 to 4 psi ([…]) to obtain thorough coverage of each plant. Control plants were sprayed in the same manner with the aqueous mixture. In this test an application rate of 1 ppm results in the application of approximately 1 g/Ha.
The treated plants and control plants were placed in a greenhouse as described above and watered by sub-irrigation to prevent wash-off of the test compounds. After 2 weeks the condition of the test plants as compared with that of the untreated plants was determined visually and scored on a scale of 0 to 100 percent where 0 corresponds to no injury and 100 corresponds to complete kill.

[10] = system: pigweed (Amaranthus retroflexus); assay: Preemergence herbicidal activity; settings: Table 6 (headed Post-emergent; text: preemergence); rate 560 ppm; after 3 weeks
How it was run: (§9)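 Pre-emergence soil spray; loam:sand 70:30, pH ~8.1. Vehicle: acetone/DMSO 97:3 stock diluted in water + 0.1% Tween 155; controls sprayed with aqueous mixture. Greenhouse 23-29° C day/22-28° C night, 15 hr photoperiod. Visual % injury vs untreated at 3 wk.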

[11] = system: morningglory (Ipomoea hederacea); assay: Preemergence herbicidal activity; settings: Table 6 (headed Post-emergent; text: preemergence); rate 560 ppm; after 3 weeks
How it was run: as §9

[12] = system: velvetleaf (Abutilon theophrasti); assay: Preemergence herbicidal activity; settings: Table 6 (headed Post-emergent; text: preemergence); rate 560 ppm; after 3 weeks
How it was run: as §9

[13] = system: sicklepod (Cassia obtusifolia); assay: Range & Pasture Crop Testing (postemergence track sprayer); settings: Table 8; salts of Compound 1; dose for 80 percent control
Experimental: as §8, §1, §2, §3, §4, §5, §6

[14] = system: field bindweed (Convolvulus arvensis); assay: as above; settings: Table 8; salts of Compound 1; dose for 80 percent control
Experimental: as §8, §1, §2, §3, §4, §5, §6

Compound	Post-emergent Evaluation - % control AMBEL [1]	Post-emergent Evaluation - % control RUMOB [2]	Post-emergent Evaluation - % control AGRCR [3]	Post-emergent Evaluation - % control CHEAL [4]	Post-emergent % Control XANST [5]	Post-emergent % Control STEME ([6]; Table 1, visual, after 2 weeks)	Post-emergent Evaluation - % control STEME ([6]; Table 5)	Post-emergent % Control POLCO ([7]; Table 1, visual, after 2 weeks)	Post-emergent Evaluation - % control POLCO ([7]; Table 5)	Post-emergent Evaluation - % control CIRAR ([8]; Table 9, rate 70 g/Ha, 3 weeks after treatment)	Post-emergent Evaluation - % control TRZAS [9]	% Control AMARE [10]	% Control IPOHE [11]	% Control ABUTH [12]	Post-emergent GR80 CASOB [13]	Post-emergent GR80 CONAR [14]	Post-emergent GR80 CIRAR ([8]; Table 8, salts of Compound 1, 3 week evaluation)
4-Amino-3,6-dichloro-5-methylthiopyridine-2-carboxylic acid [Compound 23]	85%	100%	30%	90%	90%	90%	30%	98%	98%	80%	20%	40%	0%	40%			
Nc1cc(Cl)nc(C(=O)[O-])c1Cl.[K+] [potassium salt]															<8.8 g/Ha	36 g/Ha	27 g/Ha
